pEC50: −log10 of the molar value.

One assay relates to Human RSV-A (“Long” strain). In words: RSV in vitro cytoprotection assay in HEp-2 cells (ATPlite read-out). To be noted: human respiratory syncytial virus, 96 h; HEp-2 cells, genotype A “Long” strain RSV, 4-day incubation, ATPlite; read-out: Human RSV-A (“Long” strain) EC50. Format: cell-based. An excerpt: RSV is a single stranded negative sense RNA virus that causes respiratory tract infections which can be dangerous to infants, the elderly, and immunosuppressed individuals. Currently there is no vaccine, and therapeutic options are both costly and of limited effectiveness. These approved treatments are Ribavirin, and Palivizumab/Synagis (a monoclonal antibody). RSV has two genotypes, A and B, which differ primarily in the structure of the virus' surface “G” attachment protein. Our current primary screen focusses on RSV-A and uses an in vitro cytoprotection assay where compounds are added in 2-fold dilutions to cells which are then subjected to fully replicative viral particles. Cell viability is measured several days later along with separate measurements of compound cytotoxicity. This report focuses on the results of our most recent screening of compounds.
HEp-2 cells, (originally derived from tumors grown in irradiated-cortisonised weanling rats that had been injected with epidermoid carcinoma tissue from a person's larynx, but later found to be indistinguishable from HeLa cells by PCR DNA analysis), were used for the culturing of genotype A, “Long” strain RSV. Flasks were inoculated with RSV and viral stocks were collected once cytopathic effect (CPE) was greater than 90%. Viral stocks in 25% sucrose media were snap frozen using liquid nitrogen to increase viral stability. Viral stock titers were quantified by tissue culture infectious dose 50% (TCID50) using 8,000 cells per well and 3-fold viral dilutions across a 96-well plate, cultured for 4 days.
Following extensive parameter testing, the final assay is run as follows: HEp-2 cells are seeded into the inner 60 wells of a 96-well plate at 8,000 cells per well in a volume of 50 μL using Growth Media (DMEM without phenol red, 1% L-Glut, 1% Penn/Strep, 1% nonessential amino acids, 10% FBS). 2-Fold serial dilutions of control and test compounds are added to the wells in duplicate in a total volume of 25 μL. Viral stock is then added to the wells in a volume of 25 μL, bringing the total volume of each well to 100 μL. Each 96-well plate has a control column of 6 wells with cells and virus but no compound (negative control, max CPE), a column with cells but no compound or virus (positive control, minimum CPE), and a column with no cells or virus or compound (background plate/reagent control). The control wells with cells but no virus are given an additional 25 μL of growth media containing an equal quantity of sucrose as those wells receiving the viral stock in order to keep consistent in media and volume conditions. The outer wells of the plate are filled with 125 μL of growth media to act as a thermal and evaporative moat around the test wells. Following a 4-day incubation period, the plates are read using ATPlite (50 uL added per well), which quantifies the amount of ATP (a measure of cell health) present in each well. Assay plates are read using the Envision luminometer. In parallel, cytotoxicity is examined on an additional 96-well plate treated in an identical manner, but substituting the 25 μL of viral stock for 25 μL of growth media. […] EC50 ranges are as follows: A<0.01 μM; B 0.01-0.05 μM; C>0.05 μM.
On the technique in general: ATP-based viability assays read luminescence as a measure of living cells.
As usually defined, the pEC50 is the EC50 on a negative log10 scale, so that one unit is a factor of ten. Take `Cc1ccc(C(=O)Nc2ccc(C(=O)N3CCC(c4ccc(C(=O)Nc5c(C)cccc5F)s4)=Cc4ccccc43)cc2)c(N2CC3(CCOCC3)C2)n1` [Example 8]: the pEC50 is 7.30 to 8.00.

For the compound `Cc1cnc(N2CC3(CCOCC3)C2)c(C(=O)Nc2ccc(C(=O)N3CCC(c4ccc(C(=O)Nc5c(F)cccc5F)s4)=Cc4ccccc43)cc2)c1` [Example 2], the pEC50 is greater than 8.00.

Consider `Cc1cnc(N2CC3(CCOCC3)C2)c(C(=O)Nc2ccc(C(=O)N3CCC(c4ccc(C(=O)Nc5c(C)cccc5F)s4)=Cc4ccccc43)cc2)c1` [Example 6], for which the pEC50 is 7.30 to 8.00.

`Cc1ccc(C(=O)Nc2ccc(C(=O)N3CCC(c4ccc(C(=O)NC56CC(C5)C6)s4)=Cc4ccccc43)cc2)c(N2CC3(CCOCC3)C2)n1` [Example 11]: the pEC50 is 7.30 to 8.00.

For `Cc1cnc(N2CC3(CCOCC3)C2)c(C(=O)Nc2ccc(C(=O)N3CCC(c4cc(C(=O)NC5CC5)cs4)=Cc4ccccc43)cc2)c1` [Example 12], the pEC50 is 7.30 to 8.00.

In the case of `Cc1cnc(N2CC3(CCOCC3)C2)c(C(=O)Nc2ccc(C(=O)N3CCC(c4ccc(C(=O)NC5CC(F)(F)C5)s4)=Cc4ccccc43)cc2)c1` [Example 4], the pEC50 was greater than 8.00.

On to `Cc1cnc(N2CC3(CCOCC3)C2)c(C(=O)Nc2ccc(C(=O)N3CCC(c4ccc(C(=O)Nc5c(C)cccc5F)cc4)=Cc4ccccc43)cc2)c1` [Example 16], for which the pEC50 is greater than 8.00.

As to `Cc1ccc(C(=O)Nc2ccc(C(=O)N3CCC(c4ccc(C(=O)Nc5c(F)cccc5F)s4)=Cc4ccccc43)cc2)c(N2CC3(CCOCC3)C2)n1` [Example 7], the pEC50 was 7.30 to 8.00.

For `Cc1cnc(N2CC3(CCOCC3)C2)c(C(=O)Nc2ccc(C(=O)N3CCC(c4ccc(C(=O)NC5CC5)cc4)=Cc4ccccc43)cc2)c1` [Example 15], the pEC50 is greater than 8.00.

Take `CC1=C(c2ccc(C(=O)Nc3c(C)cccc3F)s2)CCN(C(=O)c2ccc(NC(=O)c3cc(C)cnc3N3CC4(CCOCC4)C3)cc2)c2ccccc21` [Example 14]: the pEC50 was less than 7.30.

Regarding `Cc1cnc(N2CC3(CCOCC3)C2)c(C(=O)Nc2ccc(C(=O)N3CCC(c4ccc(C(=O)NC5CC5)s4)=Cc4ccccc43)cc2)c1` [Example 1], the negative-log EC50 (pEC50) is greater than 8.00.

As for `Cc1ccc(C(=O)Nc2ccc(C(=O)N3CCC(c4ccc(C(=O)NC5CC(F)(F)C5)s4)=Cc4ccccc43)cc2)c(N2CC3(CCOCC3)C2)n1` [Example 9], the pEC50 is 7.30 to 8.00.

Consider `CC1=C(c2ccc(C(=O)NC3CC3)s2)CCN(C(=O)c2ccc(NC(=O)c3cc(C)cnc3N3CC4(CCOCC4)C3)cc2)c2ccccc21` [Example 13], for which the pEC50 was less than 7.30.

As to `Cc1cnc(N2CC3(CCOCC3)C2)c(C(=O)Nc2ccc(C(=O)N3CCC(c4ccc(C(=O)NC56CC(C5)C6)s4)=Cc4ccccc43)cc2)c1` [Example 5], the pEC50 is 7.30 to 8.00.

Consider `Cc1ccc(C(=O)Nc2ccc(C(=O)N3CCC(c4ccc(C(=O)NC5CCC5)s4)=Cc4ccccc43)cc2)c(N2CC3(CCOCC3)C2)n1` [Example 10], for which the negative logarithm of the EC50 (pEC50) is greater than 8.00.

For the compound `Cc1cnc(N2CC3(CCOCC3)C2)c(C(=O)Nc2ccc(C(=O)N3CCC(c4ccc(C(=O)NC5CCC5)s4)=Cc4ccccc43)cc2)c1` [Example 3], the pEC50 is greater than 8.00.

Still in this assay, the particulars now being: human respiratory syncytial virus, HEp-2.
Turning to `O=C(Nc1ccccc1F)N[C@H]1N=C(c2ccccc2)c2ccccc2NC1=O` [RSV-604, reference compound], the pEC50 is roughly 5.62.
